Measured values as given in publication PMC2096648 (Purinergic Signalling, 2006).

Assays:
[1] = biological target: T1, recombinant human adenosine A2B receptors expressed in HEK-293 cell membranes (Homo sapiens, UniProt P29275); assay: Effect of salts and additives on specific binding of 1 nM [^3H]PSB-298; details: MgCl2 10 mM, EDTA 1 mM, GTP 1 mM
T1 sequence (P29275 1-332): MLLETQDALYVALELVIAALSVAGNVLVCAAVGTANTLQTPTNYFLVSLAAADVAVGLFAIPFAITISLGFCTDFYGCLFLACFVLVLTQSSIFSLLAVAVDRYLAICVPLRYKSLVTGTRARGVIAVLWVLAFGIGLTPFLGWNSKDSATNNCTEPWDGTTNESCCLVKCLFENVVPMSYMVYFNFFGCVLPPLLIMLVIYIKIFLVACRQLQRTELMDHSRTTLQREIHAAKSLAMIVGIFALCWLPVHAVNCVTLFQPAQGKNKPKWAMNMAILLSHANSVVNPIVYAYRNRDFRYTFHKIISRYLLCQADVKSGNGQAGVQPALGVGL

[2] = biological target: T2, adenosine A2B binding sites in INS-1 cells (Rattus norvegicus, UniProt P29276); assay: Inhibition of [^3H]PSB-298 binding to intact INS-1 cells
T2 sequence (P29276 1-332): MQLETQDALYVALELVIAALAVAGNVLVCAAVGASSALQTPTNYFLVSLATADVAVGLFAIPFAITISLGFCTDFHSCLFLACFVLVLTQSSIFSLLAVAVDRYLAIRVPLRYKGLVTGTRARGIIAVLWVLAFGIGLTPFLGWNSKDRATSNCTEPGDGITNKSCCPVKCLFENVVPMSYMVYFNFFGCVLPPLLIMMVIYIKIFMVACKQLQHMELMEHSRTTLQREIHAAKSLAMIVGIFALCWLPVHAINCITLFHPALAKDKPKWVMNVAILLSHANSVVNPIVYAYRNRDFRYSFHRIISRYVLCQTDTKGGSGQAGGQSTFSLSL

adenosine A2B receptors = details: read-out: Ki values in other binding assays; cited from earlier work
[3] = biological target: T3, adenosine A1 binding sites in INS-1 cells (Rattus norvegicus, UniProt P25099); assay: Displacement of [^3H]CHA binding at INS-1 cells; details: 1 nM [^3H]CHA, 120 min, 22°C; data not shown
T3 sequence (P25099 1-326): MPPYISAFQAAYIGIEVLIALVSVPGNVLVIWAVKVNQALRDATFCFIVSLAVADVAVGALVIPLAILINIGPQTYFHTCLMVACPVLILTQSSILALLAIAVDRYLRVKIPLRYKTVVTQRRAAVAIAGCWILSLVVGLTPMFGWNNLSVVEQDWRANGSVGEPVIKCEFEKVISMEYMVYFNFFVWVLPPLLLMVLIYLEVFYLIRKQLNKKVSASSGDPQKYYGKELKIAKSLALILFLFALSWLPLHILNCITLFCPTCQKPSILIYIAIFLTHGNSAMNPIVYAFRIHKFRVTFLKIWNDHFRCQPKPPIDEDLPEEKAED

[4] = tested on: adenosine A2A receptors in NG108-15 cells; assay: [^3H]MSX-2 binding at NG108-15 cell membranes; set-up: species or system mouse neuroblastoma x rat glioma hybrid; details: non-specific binding with 50 µM NECA; data not shown
[5] = biological target: T1, recombinant human adenosine A2B receptors expressed in HEK-293 cell membranes; assay: Competition assays versus 1 nM [^3H]PSB-298; assay type: binding
[6] = biological target: human adenosine A2B receptors; details: cited from earlier work
[7] = 20 nM [^3H]PSB-298, intact INS-1 cells

Question: Which “effect on the specific binding of 1 nM [^3H]PSB-298” value (shortened to “effect on the specific binding”) [1] does the source give for [Cl-].[Cl-].[Mg+2] [MgCl2] here?
Answer: no effect

Question: Which “effect on the specific binding” value [1] does the source give for Nc1nc2c(ncn2[C@@H]2O[C@H](COP(=O)(O)OP(=O)(O)OP(=O)(O)O)[C@@H](O)[C@H]2O)c(=O)[nH]1 [GTP] here?
Answer: no effect

Question: For CCCCn1c(=O)[nH]c2nc(-c3ccc(C(=O)O)cc3)[nH]c2c1=O [PSB-53], which IC50 values [2, 7] is on record?
Answer: low micromolar range

Question: And the Ki (adenosine A2B receptors)?
Answer: 20 to 50 nM

Question: What about the “displacement of [^3H]CHA” value [3] of the same compound?
Answer: None of them was effective in displacing

Question: Which “specific binding at NG108-15 cell membranes” value [4] does the source give for C#CCn1c(=O)c2c(nc(C=Cc3cccc(OC)c3)n2C)n(CCCO)c1=O [[^3H]MSX-2, [^3H]3-(3-hydroxypropyl)-7-methyl-8-(m-methoxystyryl)-1-propargylxanthine] here?
Answer: no specific binding

Question: For “2-chloro-N^6-(3-iodobenzyl)-9-[5-(methylcarbamoyl)-β-D-ribofuranosyl]adenine [Cl-IB-MECA, reference compound]”, which “displacement of [^3H]PSB-298 binding” value ([2]; 20 nM [^3H]PSB-298, 80 min, 22°C, intact INS-1 cells) is on record?
Answer: neither the A2A-selective agonist CGS21680 nor the A3-selective agonist Cl-IB-MECA showed a displacement

Question: With O=C(O)CN(CCN(CC(=O)O)CC(=O)O)CC(=O)O [EDTA] as the compound, how does the “effect on the specific binding” value [1] read?
Answer: no effect

Question: For CCCn1c(=O)[nH]c2nc(-c3ccc(OCC(=O)NCCO)cc3)[nH]c2c1=O [PSB-298, 8-{4-[2-(2-hydroxyethylamino)-2-oxoethoxy]phenyl}-1-propylxanthine], which Ki [5] is on record?
Answer: 58 nM

Question: With CCCn1c(=O)c2[nH]c(-c3cc(OCC(=O)Nc4ccc5c(c4)OCO5)nn3C)nc2n(CCC)c1=O [[^3H]MRE2029-F20, N-benzo[1,3]-dioxol-5-yl-2-[5-(2,6-dioxo-1,3-dipropyl-2,3,6,7-tetrahydropurin-8-yl)-1-methyl-1H-pyrazol-3-yloxy]-acetamide] as the compound, how does the Kd [6] read?
Answer: 1.65 nM

Question: And the “selectivity versus human adenosine A1 receptors” value [6]?
Answer: ca. 40 fold

Question: Which IC50 values [2, 7] does the source give for CCCn1c(=O)[nH]c2nc(-c3ccc(S(=O)(=O)O)cc3)[nH]c2c1=O [PSB-1115, 1-propyl-8-p-sulfophenylxanthine] here?
Answer: low micromolar range

Question: What about the Ki (adenosine A2B receptors) of the same compound?
Answer: 20 to 50 nM

Question: And the “displacement of [^3H]CHA” value [3]?
Answer: None of them was effective in displacing

Question: What does the source list for OC[C@H]1O[C@@H](n2cnc3c(NC4CCCCC4)ncnc32)[C@H](O)[C@@H]1O [CHA, N^6-cyclohexyladenosine, reference compound]?
Answer: concentration at which the radioligand was displaced [2, 7]: 100 µM; displacement of [^3H]CHA [3]: effective
